# Measured values: patent US7267946B2, “Mitochondrial DNA damage as a predictor of coronary atherosclerotic heart disease” (Research Development Foundation, priority 1999, dated 2007)
# What was measured:
# [1] = test system: 16S rRNA, ND2 and Cyt b transcripts; experiment: Northern transcript analysis, HUVEC; format: cell-based, human; conditions: 0.5 mM, 60 min
# Description: (§1) Human umbilical endothelial vein cells (HUVEC) and human aortic smooth muscle cells (HASMC) were maintained a t 37° C. and 5% CO2/95% air in Dulbecco's Modified Eagles Media (HASMC; Cell Gro) or M199 (HUVEC:Cell Gro) supplemented with 10% (HASMC) or 20% (HUVEC) heat inactivated fetal calf serum (Gibco/BRL), HEPES buffer (10 mM), glutamine, penicillin, and streptomycin. Flasks were routinely split every 3-4 days and disassociated for experiments using trypsin-EDTA (Gibco/BRL). Cells were treated with the various reactive oxygen species (controls mock treated with serum-free media) at 70-80% confluence, between passages 5-7. […] SIN-1 (3-morpholinosydnonimine, hydrochloride, Molecular Probes) was used to generate higher, equimolar levels of nitric oxide and O2^-. Monolayer cultures in 60 mm plates (70%-80% confluent) were exposed to specific reactive oxygen species concentrations for dose response, and time-course experiments in serum-free, phenol red free minimum essential media (MEM) at 37° C. Control monolayers were mock-treated with serum-free and phenol red-free MEM alone. […] Autoradiographs were scanned densitometrically (Molecular Dynamics Densitometer SI) and quantitated using IMAGEQUANT (Molecular Dynamics). In regard to the quantitation of mitochondrial transcript levels, any technique used to quantify mtRNA transcript levels would be applicable. […]
# [2] = test system: complex II, succinate dehydrogenase; experiment: MTT reduction (mitochondrial respiration), HUVEC; format: cell-based, human; conditions: 1 hour
# Description: (§2) Reduction of MTT at complex II was used to assess mitochondrial respiration (38-42). Cells were seeded in 96 well plates at a density of 8,000 cells/well and incubated at 37° C. […] Absorbance values were converted to MTT reduction using a standard curve generated with known numbers of viable cells. MTT reduction for treated samples was then normalized to non-treated control samples and is reported as a fraction of control. Total ATP levels were determined using an ATP determination kit (Molecular Probes, A-6608) and a MicroLumat Plus LB (EG&G Berthold) micro-injector luminometer. Briefly, this assay is based upon luciferin-luciferase bioluminescence (˜560 nm) in the presence of ATP. This assay is extremely sensitive; most luminometers can detect as little as 0.1 picomole of pre-existing ATP, or ATP as it is being formed in kinetic systems. Statistical analysis was performed using the independent Student's t test.
# [3] = test system: complex II, succinate dehydrogenase; experiment: MTT reduction (mitochondrial respiration), HASMC; format: cell-based, human; conditions: 1 hour
# Description: as §2
# [4] = test system: mitochondrial protein synthesis; experiment: Mitochondrial protein synthesis (35S-methionine incorporation), HUVEC; format: cell-based, human
# Description: (§3) Human umbilical endothelial vein cells (HUVEC) and human aortic smooth muscle cells (HASMC) were maintained a t 37° C. and 5% CO2/95% air in Dulbecco's Modified Eagles Media (HASMC; Cell Gro) or M199 (HUVEC:Cell Gro) supplemented with 10% (HASMC) or 20% (HUVEC) heat inactivated fetal calf serum (Gibco/BRL), HEPES buffer (10 mM), glutamine, penicillin, and streptomycin. Flasks were routinely split every 3-4 days and disassociated for experiments using trypsin-EDTA (Gibco/BRL). Cells were treated with the various reactive oxygen species (controls mock treated with serum-free media) at 70-80% confluence, between passages 5-7. […] SIN-1 (3-morpholinosydnonimine, hydrochloride, Molecular Probes) was used to generate higher, equimolar levels of nitric oxide and O2^−. Monolayer cultures in 60 mm plates (70%-80% confluent) were exposed to specific reactive oxygen species concentrations for dose response, and time-course experiments in serum-free, phenol red free minimum essential media (MEM) at 37° C. Control monolayers were mock-treated with serum-free and phenol red-free MEM alone. After treatment, cells were washed once with PBS and harvested immediately. Methods for mitochondrial protein synthesis analyses have been described (37). […] Cells were trypsinized, and washed with PBS. […] Gels were dried onto Whatman filter paper, and exposed to Kodak XAR film at −80° C. The percent labeling of the translation products was determined by densitometry (Molecular Dynamics Densitometer SI) of all bands for untreated and treated samples. The sum of labeling of the bands for each sample was used to calculate the relative levels of incorporation. In regard to the quantitation of mitochondrial protein levels, any technique used to quantify mitochondrial protein synthesis levels would be applicable. Statistical analysis was performed using the independent Student's t test.
# [5] = test system: mitochondrial protein synthesis; experiment: Mitochondrial protein synthesis, HUVEC and HASMC pooled statements; format: cell-based; conditions: Homo sapiens; 0.1 mM, cell line not stated
# Description: Human umbilical endothelial vein cells (HUVEC) and human aortic smooth muscle cells (HASMC) were maintained a t 37° C. and 5% CO2/95% air in Dulbecco's Modified Eagles Media (HASMC; Cell Gro) or M199 (HUVEC:Cell Gro) supplemented with 10% (HASMC) or 20% (HUVEC) heat inactivated fetal calf serum (Gibco/BRL), HEPES buffer (10 mM), glutamine, penicillin, and streptomycin. Flasks were routinely split every 3-4 days and disassociated for experiments using trypsin-EDTA (Gibco/BRL). Cells were treated with the various reactive oxygen species (controls mock treated with serum-free media) at 70-80% confluence, between passages 5-7. […] SIN-1 (3-morpholinosydnonimine, hydrochloride, Molecular Probes) was used to generate higher, equimolar levels of nitric oxide and O2^−. Monolayer cultures in 60 mm plates (70%-80% confluent) were exposed to specific reactive oxygen species concentrations for dose response, and time-course experiments in serum-free, phenol red free minimum essential media (MEM) at 37° C. […] The percent labeling of the translation products was determined by densitometry (Molecular Dynamics Densitometer SI) of all bands for untreated and treated samples. […] In regard to the quantitation of mitochondrial protein levels, any technique used to quantify mitochondrial protein synthesis levels would be applicable. […]
# [6] = test system: HASMC; experiment: Total ATP determination, HASMC; format: cell-based, human; conditions: 1 hour
# Description: as §2
# [7] = test system: mitochondrial DNA encoded OXPHOS gene transcripts; β-actin; experiment: Northern transcript analysis, HUVEC and HASMC pooled statements; format: cell-based, human; conditions: peroxynitrite treatments
# Description: as §1
# [8] = molecular target: T1, recombinant human MnSOD (Homo sapiens, UniProt P04179); conditions: cited from earlier work
# T1 sequence (P04179 25-222): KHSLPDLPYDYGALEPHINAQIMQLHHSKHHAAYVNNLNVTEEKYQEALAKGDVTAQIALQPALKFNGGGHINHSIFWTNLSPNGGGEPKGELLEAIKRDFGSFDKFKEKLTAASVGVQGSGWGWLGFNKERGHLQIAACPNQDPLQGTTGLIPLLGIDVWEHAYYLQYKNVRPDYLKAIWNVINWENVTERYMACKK
# [9] = test system: HUVEC; experiment: Total ATP determination, HUVEC; format: cell-based, human; conditions: 1 hour
# Description: as §2
# [10] = test system: 16S rRNA, ND2 and Cyt b transcripts; experiment: Northern transcript analysis, HASMC; format: cell-based, human; conditions: 0.5 mM, 60 min
# Description: as §1
# [11] = test system: mitochondrial protein synthesis; experiment: Mitochondrial protein synthesis (35S-methionine incorporation), HASMC; format: cell-based, human
# Description: as §3
# [12] = test system: mitochondrial DNA; experiment: QPCR DNA damage assay, mtDNA, HUVEC; format: cell-based, human
# Description: (§4) Human umbilical endothelial vein cells (HUVEC) and human aortic smooth muscle cells (HASMC) were maintained a t 37° C. and 5% CO2/95% air in Dulbecco's Modified Eagles Media (HASMC; Cell Gro) or M199 (HUVEC:Cell Gro) supplemented with 10% (HASMC) or 20% (HUVEC) heat inactivated fetal calf serum (Gibco/BRL), HEPES buffer (10 mM), glutamine, penicillin, and streptomycin. Flasks were routinely split every 3-4 days and disassociated for experiments using trypsin-EDTA (Gibco/BRL). Cells were treated with the various reactive oxygen species (controls mock treated with serum-free media) at 70-80% confluence, between passages 5-7.
# Xanthine oxidase/lumazine and spermine NONOate were used as low dose O2^− and nitric oxide donors, respectively. SIN-1 (3-morpholinosydnonimine, hydrochloride, Molecular Probes) was used to generate higher, equimolar levels of nitric oxide and O2^−. Monolayer cultures in 60 mm plates (70%-80% confluent) were exposed to specific reactive oxygen species concentrations for dose response, and time-course experiments in serum-free, phenol red free minimum essential media (MEM) at 37° C. Control monolayers were mock-treated with serum-free and phenol red-free MEM alone. After treatment, cells were washed once with PBS and harvested immediately.
# (§5) The QPCR assay measures the average degree of DNA damage per strand for the two template strands in the genomic segment of interest. […] Damage is assessed in the mitochondrial genome by amplifying a 16.2 kb product from the mitochondrial DNA template, and the nuclear genome by a 17.7 kb product from the β-globin gene cluster. […] Because differences in QPCR amplifications may at times be related to template copy number differences or simply due to the DNA quality unrelated to in vivo or in vitro mediated damage, a quantitative amplification of a small region is performed as a quality control (32). […]
# [13] = test system: nDNA (β-globin gene cluster); experiment: QPCR DNA damage assay, nDNA, HUVEC; format: cell-based, human; conditions: 0.2 mM, time course 0-60 minutes
# Description: as §4
# (§6) Xanthine oxidase/lumazine and spermine NONOate were used as low dose O2^− and nitric oxide donors, respectively. […]
# as §5
# [14] = test system: mitochondrial DNA; experiment: QPCR DNA damage assay, mtDNA, HASMC; format: cell-based, human; conditions: 0.2 mM, time course 0-60 minutes
# Description: as §4, §6, §5
# [15] = Homo sapiens, 0.5 mM, read-out: protein labeling, % of control
compound,measurement,setting,value
O=NOO [peroxynitrite],decrease of 16S rRNA levels,[1],26%
same,"complex II reduction of MTT (mitochondrial respiration), in words",[2]; 0.1 mM,did not result in a significant decrease
same,"complex II reduction of MTT (mitochondrial respiration), in words","[2]; 0.5 mM, P=0.02",significant decline
same,"complex II reduction of MTT (mitochondrial respiration), in words",[3]; 0.1 mM,did not result in a significant decrease
same,"complex II reduction of MTT (mitochondrial respiration), in words","[3]; 0.5 mM, P=0.008",significant decline
same,35S-Methionine Incorporation Compared to Control,[4],45%
same,loss of mitochondrial protein synthesis compared to untreated cells,[4]; 0.5 mM,55%
same,activity at 500 µM,[4]; [15],45%
same,inhibition at 100 µM,[5],10%
same,total ATP (in words),[6]; 0.1 mM,did not result in a significant reduction
same,total ATP (in words),"[6]; 0.5 mM, P=0.04",significant decreases
same,transcript levels of the nuclear β-actin gene,[7],unaffected
same,inhibition of MnSOD enzymatic activity,[8],complete inhibition
same,total ATP (in words),[9]; 0.1 mM,did not result in a significant reduction
same,total ATP (in words),"[9]; 0.5 mM, P=0.02",significant decreases
same,decrease in ND2 and Cyt b transcript levels,[10],55%
same,reduction of 16S rRNA levels,[10],14%
same,35S-Methionine Incorporation Compared to Control,[11],30%
same,35S-Methionine Incorporation Compared to Control,[11]; 0.1 mM,88%
same,decrease in 35S-methionine incorporation,[11]; 0.1 mM,12%
same,activity at 500 µM,[11]; [15],30%
"OO [H2O2, hydrogen peroxide]",35S-Methionine Incorporation Compared to Control,[4]; 0.2 mM,77%
same,time at which significant mitochondrial DNA damage occurred,"[12]; HUVEC, 0.2 mM, time course 0-60 minutes",≤ 10 min
same,treatment time required before significant nDNA (β-globin) damage,[13],60 min
same,time at which significant mitochondrial DNA damage occurred,[14],≤ 15 min
same,35S-Methionine Incorporation Compared to Control,[11]; 0.2 mM,67%
catalase,effect of pretreatment on O2^- induced mitochondrial DNA damage,"[12]; HUVEC, O2^- 2 mM/ml/minute",prevented
NCCCNCCCCN(CCCN)/[N+]([O-])=N/O [spermine NONOate],DNA damage (in words),"[12]; sustained nitric oxide generation 0.5 mM/ml/min, cell line not named in the clause (HUVEC context)",did no t cause DNA damage
